Like-named read-outs stand apart in the source and are kept apart here.
Target: T1, cyclic AMP phosphodiesterase (Oryctolagus cuniculus, UniProt G1ST54)
T1 construct: the supernatant was collected to use it as a crude enzyme solution; from tissue; host or cells: rabbit platelets (from platelet-rich plasma), 100,000 xg supernatant, DEAE-cellulose fraction
T1 sequence (G1ST54 1-1128): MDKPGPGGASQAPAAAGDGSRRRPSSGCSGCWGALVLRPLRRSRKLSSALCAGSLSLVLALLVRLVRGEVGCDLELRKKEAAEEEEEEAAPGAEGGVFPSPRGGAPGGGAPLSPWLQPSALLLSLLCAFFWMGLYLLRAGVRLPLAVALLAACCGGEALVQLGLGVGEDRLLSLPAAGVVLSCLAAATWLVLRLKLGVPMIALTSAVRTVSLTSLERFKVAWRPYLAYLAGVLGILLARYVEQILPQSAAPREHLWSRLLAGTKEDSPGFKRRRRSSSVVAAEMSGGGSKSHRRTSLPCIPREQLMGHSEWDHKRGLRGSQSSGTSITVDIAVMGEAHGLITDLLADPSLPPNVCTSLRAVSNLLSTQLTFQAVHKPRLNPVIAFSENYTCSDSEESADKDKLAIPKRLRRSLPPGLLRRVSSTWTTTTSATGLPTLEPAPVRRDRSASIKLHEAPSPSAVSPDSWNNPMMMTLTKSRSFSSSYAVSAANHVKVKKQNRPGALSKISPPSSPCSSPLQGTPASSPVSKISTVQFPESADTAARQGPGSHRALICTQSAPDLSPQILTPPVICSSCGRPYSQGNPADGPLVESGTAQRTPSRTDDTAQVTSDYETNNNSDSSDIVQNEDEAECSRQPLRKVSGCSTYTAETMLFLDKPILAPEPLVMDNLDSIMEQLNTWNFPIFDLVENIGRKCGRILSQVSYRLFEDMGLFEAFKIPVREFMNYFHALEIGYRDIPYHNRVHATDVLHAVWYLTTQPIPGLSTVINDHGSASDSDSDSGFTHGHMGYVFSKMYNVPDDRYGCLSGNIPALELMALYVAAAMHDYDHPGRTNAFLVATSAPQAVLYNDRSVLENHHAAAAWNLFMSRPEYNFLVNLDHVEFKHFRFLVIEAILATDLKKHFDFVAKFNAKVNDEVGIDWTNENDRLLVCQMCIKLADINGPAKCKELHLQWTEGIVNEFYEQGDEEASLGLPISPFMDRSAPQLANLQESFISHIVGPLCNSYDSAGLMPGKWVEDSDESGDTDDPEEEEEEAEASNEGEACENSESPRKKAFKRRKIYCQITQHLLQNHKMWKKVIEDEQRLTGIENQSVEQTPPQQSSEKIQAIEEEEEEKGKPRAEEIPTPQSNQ
Assay: Obstructive action against cyclic AMP phosphodiesterase
Assay type: biochemical, rabbit
Description: The obstructive action against cyclic AMP phosphodiesterase was measured according to the activity measuring method described in "Biochimica et Biophysica Acta", Vol. 429, pp. 485-497 (1976) and "Biochemical Medicine", Vol. 10, pp. 301-311 (1974).
That is, for determining the obstructive activity against cyclic AMP phosphodiesterase, 10 ml of a solution obtained by adding 1 mmol of MgCl2 into 50 mmol of tris-hydrochloric acid buffer with pH 7.4 was added to the platelets obtained by further centrifuging the abovesaid rabbit PRP at 3,000 r.p.m. for 10 minutes, and the suspended platelets were ground by a Teflon potter type homogenizer. This was followed by two times of freezing and thawing treatment and 300-second fracturing with 200 watt supersonic waves. After additional 60-minute centrifugation with 100,000 xg, the supernatant was collected to use it as a crude enzyme solution.
10 Milliliters of this crude buffer solution was added to a 1.5×20 cm DEAE-cellulose column which has previously been buffered with 50 mmol of tris-acetate buffer (pH 6.0), followed by washing and elution with 30 ml of 50 mmol tris-acetate buffer, and this buffer solution was subjected to linear gradient elution with 0 to 0.5 moles of sodium acetate-tris-acetatebuffer. The flow rate was 0.5 ml/min, and 5 ml of each fraction was batched out. […] This fraction was used as cyclic AMP phosphodiesterase.
0.1 Milliliter of an aqueous solution of each test compound of a specified concentration was mixed with 40 mmol of tris-hydrochloric acid buffer (pH 8.0, containing 50 μg of cow serum albumin and 4 mmol of MgCl2) containing predetermined 1.0 μmol of cyclic AMP (tritium cyclic AMP), and 0.2 ml of this mixed solution was used as substrate solution.
0.2 Milliliter of the above-prepared cyclic AMP phosphodiesterase of a predetermined concentration was added to said substrate solution and the mixture was reaction at 30° C. for 20 minutes, producing tritium 5'-AMP from the tritium cyclic AMP.
The reaction system was then immersed in boiling water for 2 minutes to stop the reaction, and then this reaction solution was cooled in ice water and, for converting the produced tritium 5'-AMP into tritium adenosine, the solution was added with 0.05 ml (1 mg/ml) of snake poison as 5'-nucleotidase and reacted at 30° C. for 10 minutes. The whole amount of this reaction solution was then added to a cation exchange resin (AG 500 W×4, 200-400 meshes, manufactured by Bio-Rad Co., column size: 0.5×1.5 cm), and the produced tritium anodesine alone was allowed to combine, washed with 6 ml of distilled water and eluted with 1.5 ml of 3 N-ammonia water. The whole quantity of the elutant was added with 10 ml of a triton-toluene type scintillator and the produced tritium adenosine was measured by a liquid scintillation counter to determine the phosphodiesterase activity.
In this way, the phosphodiesterase activation value (Vs) of the test compounds of the respective concentrations was determined, and the phosphodiesterase obstruction rate (%) was determined from said activation value (Vs) and control value (Vc) (obtained from water not containing any test compound) from the following formula: [formula]

[1] = pH 8, read-out: phosphodiesterase obstruction rate

Structure (SMILES) | inhibition at 10 µM (10^-5 mole, 1.0 μmol cyclic AMP, pH 8.0, 30° C., read-out: phosphodiesterase obstruction rate) | inhibition at 1 µM (10^-6 mole, 1.0 μmol cyclic AMP, pH 8.0, 30° C., read-out: phosphodiesterase obstruction rate) | inhibition at 0.1 µM (10^-7 mole, 1.0 μmol cyclic AMP, pH 8.0, 30° C., read-out: phosphodiesterase obstruction rate) | inhibition at 0.01 µM (10^-8 mole, 1.0 μmol cyclic AMP, pH 8.0, 30° C., read-out: phosphodiesterase obstruction rate) | inhibition at 0.001 µM (10^-9 mole, 1.0 μmol cyclic AMP, pH 8.0, 30° C., read-out: phosphodiesterase obstruction rate) | inhibition at 0.001 µM [1] | inhibition at 0.01 µM [1] | inhibition at 0.1 µM [1] | inhibition at 1 µM [1] | inhibition at 10 µM [1]
CC(=O)OC1CCC(N(C)C(=O)CCCOc2ccc3[nH]c(=O)ccc3c2)CC1 (stereo not shown) [compound 3, 6-{3-[N-Methyl-N-(4-acetyloxycyclohexyl)aminocarbonyl]propoxy}carbostyril] | 98.5% | 95.5% | 88.4% | 61.1% | 13.4% | – | – | – | – | –
CN(C(=O)CCCOc1ccc2[nH]c(=O)ccc2c1)C1CCCCC1 [compound 16, 6-[3-(N-Methyl-N-cyclohexylaminocarbonyl)propoxy]carbostyril] | – | – | – | – | – | 7.1% | 22.3% | 79.3% | 87.5% | 80.5%
